Data: patent US9480674B2, “Method and composition for treating acne” (THESAN PHARMACEUTICALS, INC., priority 2012, dated 2016)
Entries after “also recorded” stand apart in the source; their conditions may differ. Where two headings read alike, the source gives them in different places.

Key:
[1] = test system: CYP1A1 expression in sebaceous glands; test: Focal expression of AhR activation (CYP1A1 immunohistochemistry) in sebaceous gland cell types of topically treated mouse ears
Excerpt: The embodiment described here entails treating the ears of C57BL/6 mice via the topical route, following established protocols to determine dose-response and time-response relationships, with sebum reducing AhR pathway agonists previously characterized for their in vivo activation of the receptor, using, for example the EROD and CALUX methods which are widely used in this field (see Table 1).
Following topical treatment, the ears are sampled, and CYP1A1 expression is examined by immunohistochemical analysis using a specific antibody.
The study diagrammed in FIG. 1 and for which photomicrographs are provided in FIG. 2 entailed treating mice daily for one week with a topical AhR pathway agonist, with ears taken for examination at Day 7. Ears were recovered and fixed in formalin, paraffin embedded and then sections were prepared and positioned on slides for immunohistochemical staining. The specific antibody used in this instance was rabbit anti-rat CYP1A1 polyclonal antibody (Millipore AB1247). The AhR pathway agonists used in the example in FIG. 2 were as follows: • 1B) 6-formylindolo[3,2-b]carbozole (NSA4/FICZ); • 2B) 8,13-Dihydroindolo[2′,3′:3,4]pyrido[2,1-b]quinazolin-5(7H)-one (NSA1/rutecarpine); • 3B) 3-phenyl-1H-benzo[f]chromen-1-one (NSA2); • 4B)_2,3,7,8-tetrachlorodibenzo-p-dioxin (NSA3/TCDD).
In addition to the particular topography of the isthmus region, these cells are characterized by the expression of L-RIG1, a marker of isthmic multi-potent clonogenic cells (Jensen et al. (2009),).

[2] = test system: sebum; test: Sebosuppressive activity on human skin (sebumetric casual level, sebutape, clinical observation); type: in vivo, man; details: for Sebosuppressive activity in man (reduction in sebum): NSA-1, NSA-2, NSA-8, NSA-9 tested at 0.5%
Description: The sebum inhibition index is calculated by counting the number of mature and differentiated cells in relation to the total number of cells in the sebaceous glands. A decrease in mature and differentiated cells indicates blocking of sebogenesis. The effect on human skin is determined by sebumetric examination using what is known as the “casual level” (Dobrev (2007)).

[3] = molecular target: T1, AhR (CYP1A1 induction) (Homo sapiens, UniProt P35869); test: EROD (ethoxyresorufin-O-deethylase) assay, CYP1A1 induction as reporter of AhR activation in vitro; type: cell-based; details: at 10 μM
T1 construct: endogenous in cells
T1 sequence (P35869 11-848): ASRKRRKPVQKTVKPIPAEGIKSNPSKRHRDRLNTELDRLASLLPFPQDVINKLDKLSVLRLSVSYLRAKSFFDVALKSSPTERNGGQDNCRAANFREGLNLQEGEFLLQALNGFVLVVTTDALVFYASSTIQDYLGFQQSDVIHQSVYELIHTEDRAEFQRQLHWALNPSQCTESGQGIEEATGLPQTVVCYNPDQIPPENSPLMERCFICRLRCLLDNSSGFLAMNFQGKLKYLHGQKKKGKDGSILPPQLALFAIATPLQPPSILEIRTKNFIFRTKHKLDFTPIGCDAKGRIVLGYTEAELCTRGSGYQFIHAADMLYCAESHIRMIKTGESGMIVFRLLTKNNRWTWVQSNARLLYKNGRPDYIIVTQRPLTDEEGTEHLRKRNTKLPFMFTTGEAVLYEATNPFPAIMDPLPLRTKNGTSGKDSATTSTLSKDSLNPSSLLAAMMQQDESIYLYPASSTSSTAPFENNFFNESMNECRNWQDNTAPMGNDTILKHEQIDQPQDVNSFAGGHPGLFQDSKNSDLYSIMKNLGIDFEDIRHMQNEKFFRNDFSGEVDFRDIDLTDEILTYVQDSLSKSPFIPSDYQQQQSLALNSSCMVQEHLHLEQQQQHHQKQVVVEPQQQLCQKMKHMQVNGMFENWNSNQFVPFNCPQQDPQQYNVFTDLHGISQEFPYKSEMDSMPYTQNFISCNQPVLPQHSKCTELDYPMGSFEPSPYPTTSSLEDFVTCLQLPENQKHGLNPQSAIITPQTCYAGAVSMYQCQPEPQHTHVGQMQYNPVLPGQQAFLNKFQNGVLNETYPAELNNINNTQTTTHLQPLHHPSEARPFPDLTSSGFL
Excerpt: As used herein, the term EROD refers to the ethoxyreorufin-O-deethylase (EROD) assay which monitors the induction of the xenobiotic-metabolizing enzyme cytochrome P-450 1A1(CYP1A1) and is a widely used as a reporter for measuring activation of the AhR in vitro (Zamaratskaia et al. (2009), Behnisch et al. (2001),)

[4] = test system: FADS2, AWAT1, ELOVL3 mRNA; test: Real-Time QRT-PCR of mRNA of sebogenic enzymes in ears of mice treated for five weeks; type: in vivo, C57BL/6 mice; details: mouse ears, 0.5% in acetone (TCDD 0.0005%), vs vehicle
Excerpt: At the end of that time the animals were sacrificed and the ears removed for further analysis.

[5] = Blood assay by HPLC in topically treated mice; type: in vivo, C57BL/6 mice; details: 5 nM sensitivity
[6] = in rodents; Adedoyin et al. (1993); cited from earlier work
[7] = test system: sebaceous glands; test: Dose effect in mice: sebosuppressive effect and tolerability of topical treatment of the ears; type: in vivo
Description: For these dose-effects tests, C57BL/6 mice were treated for three to five weeks, five days per week on the ears and in three concentrations, namely 0.1, 0.5, and 1% of NSA-2. The sebosuppressive effect was analyzed at the third week although expression thereof starts after one week.
Drug tolerability, in the absence of MADISH-type cyst production, was assessed after five weeks' treatment.

[8] = in vivo; cited from earlier work

SMILES | Activation of the AhR pathway (CYP1A1 staining) in the sebaceous cell sub-populations, stage reached ([1]; mouse, in vivo) | Sebosuppressive activity in man (reduction in sebum) [2] | Inhibition of mRNA expression encoding the three sebogenic enzymes (FADS2, AWAT1, ELOVL3) [4] | further results
O=c1c2ccccc2nc2n1CCc1c-2[nH]c2ccccc12 [NSA 1, 8,13-Dihydroindolo[2′,3′:3,4]pyrido[2,1-b]quinazolin-5(7H)-one] | activates the AhR pathway in two of the cell sub-populations in mice | potentially useful sebosuppressive activity in man when tested at the same concentrations (0.5%), although weaker than that of NSA-2 | – | –
O=c1cc(-c2ccccc2)oc2ccc3ccccc3c12 [NSA 2, 3-phenyl-1H-benzo[f]chromen-1-one] | activate the AhR pathway in the four cell sub-populations within a period of less than one week | strongest sebosuppressive activity in man; also recorded: active in reducing sebum | major inhibition | AhR activation in the standard EROD assay, % of the level of induction seen with 0.01 μM TCDD [3]: 10-20%; Blood level by HPLC [5]: < 5 nM; half-life [6]: less than 45 mins; Sebosuppressive effect in mice (active sebaceous glands, gland surface, ratios of sebocytes; FIGS. 5-8) ([7]; 0.1, 0.5 and 1%, ears, five days per week, analyzed at the third week): very marked effects; also recorded: a reduction in the differentiated compartment of the gland was observed; MADISH-type cystic lesions ([7]; after five weeks' treatment, any concentration tested): No cystic lesion were observed; Tolerability in mice ([7]; mouse, in vivo): good tolerability
Clc1cc2c(cc1Cl)Oc1cc(Cl)c(Cl)cc1O2 [NSA 3, 2,3,7,8-tetrachlorodibenzo-p-dioxin] | – | strongest sebosuppressive activity in man | degree of specific gene suppression seen with NSA-2 is equivalent to that seen with the structurally unrelated compound NSA-3 | half-life [8]: measureable in years; Activation of the AhR pathway (CYP1A1 staining) in the sebaceous cell sub-populations, stage reached ([1]; mice, topical, first week of treatment): activate the AhR pathway in the four cell sub-populations within a period of less than one week
O=Cc1c2c(cc3c1=Nc1ccccc1-3)=Nc1ccccc1-2 [NSA 4, 6-formylindolo[3,2-b]carbazole] | limited distribution in the sebaceous glands when compared with NSA-2 | – | – | –
COc1ccc2nc([S@@+]([O-])Cc3ncc(C)c(OC)c3C)[nH]c2c1 [NSA 7, (S)-5-methoxy-2-[(4-methoxy-3,5-dimethylpyridin-2-yl)methylsulfinyl]-3H-benzoimidazole] | only activates the AhR receptor pathways in Stage One of the cell sub-populations | – | – | Sebosuppressive activity in man ([2]; tested at 8%): no sebosuppressive activity in man
O=c1cc(-c2ccccc2)oc2c1ccc1ccccc12 [NSA-8, 2-phenyl-4H-benzo[h]chromen-4-one] | – | neither 2-phenyl-4H-benzo[h]chromen-4-one nor 2-phenyl-4H-chromen-4-one exhibited any reduction in sebum | slightly stimulating effect | –
O=c1cc(-c2ccccc2)oc2ccccc12 [NSA-9, 2-phenyl-4H-chromen-4-one] | – | neither 2-phenyl-4H-benzo[h]chromen-4-one nor 2-phenyl-4H-chromen-4-one exhibited any reduction in sebum | no significant effect | –
